Measured values taken from patent publication US20250100996A1, “HETEROCYCLOALKYL AND HETEROARYL COMPOUNDS AND PHARMACEUTICAL COMPOSITIONS THAT MODULATE IKZF2” (Plexium, Inc., priority 2021, published 2025).

Tests used:
[1] = molecular target: T1, human E3 ligase component cereblon (CRBN) (Homo sapiens, UniProt Q96SW2); assay: Cereblon (CRBN) target engagement, NanoBRET TE Intracellular E3 Ligase Assay in transfected HEK-293T cells; settings: read-out: CRBN Binding EC50
T1 construct: host or cells: HEK293T
Procedure, shortened: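 HEK-293T cells transiently co-transfected with NanoLuc-CRBN (N-terminal NanoLuc) and DDB1 were dosed with CRBN tracer and an 11-point compound series (typically 10 μM to 100 pM) for 2 h at 37° C. BRET at 450/610 nm gave IC50 by four-parameter logistic fit.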

[2] = molecular target: T2, IKZF1 (Ikaros) (Homo sapiens, UniProt Q13422); assay: IKZF1 reporter degradation assay (HEK 293T IKZF1-mNeonGreen reporter cell line); type: cell-based; settings: HEK 293T IKZF1-mNeonGreen reporter, 24 hours incubation
T2 construct: mScarlet (behind P2A) (C, cleaved yes); expressed in transfected cells
Procedure, shortened: (§1)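 Stable clonal HEK 293T lines express each IKZF-mNeonGreen-P2A-mScarlet fusion. Cells were seeded, attached overnight, then given compound (≤0.5% DMSO, quadruplicate) for 24 h at 37° C. Imaged for percent mNeonGreen-positive cells, segmented on mScarlet. DC50 from four-parameter logistic fit.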

[3] = molecular target: T3, IKZF2 (Helios) (Homo sapiens, UniProt Q96SW2+Q9UKS7); assay: IKZF2 reporter degradation assay (HEK 293T IKZF2-mNeonGreen reporter cell line); type: cell-based; settings: HEK-293T, 24 h, @ 1 μM, HEK 293T IKZF2-mNeonGreen reporter, 24 hours incubation
T3 construct: Leu-Asp junction (codons ctcgac before the linker); mScarlet (behind P2A) (C, cleaved yes); expressed in transfected cells
Procedure, shortened: as §1

[4] = molecular target: T4, IKZF2 (Helios) (Homo sapiens, UniProt Q9UKS7); assay: as above; type: cell-based; settings: HEK 293T IKZF2-mNeonGreen reporter, 24 hours incubation
T4 construct: Leu-Asp junction (codons ctcgac before the linker); mScarlet (behind P2A) (C, cleaved yes); expressed in transfected cells
Procedure, shortened: as §1

[5] = molecular target: T5, IKZF3 (Aiolos) (Homo sapiens, UniProt Q9UKT9); assay: IKZF3 reporter degradation assay (HEK 293T IKZF3-mNeonGreen reporter cell line); type: cell-based; settings: HEK 293T IKZF3-mNeonGreen reporter, 24 hours incubation
T5 construct: Leu-Asp junction (codons ctcgac before the linker); mScarlet (behind P2A) (C, cleaved yes); expressed in transfected cells
Procedure, shortened: as §1

[6] = molecular target: T6, GSPT1 (Homo sapiens, UniProt P15170); assay: GSPT1 reporter degradation assay (HEK293 hGSPT1 HiBiT-tagged cells); type: cell-based; settings: 24 hour incubation
T6 construct: HiBiT-tagged cells were generated using CRISPR-Cas12a technology; endogenous in cells; host or cells: HEK293 (endogenous GSPT1 locus edited with HiBiT knock-in)
Description: HEK293_hGSPTl_HiBiT-tagged cells were generated using CRISPR-Cas12a technology. Briefly, ˜400,000 HEK293 cells were transiently co-transfected with precomplexed ribonuclear proteins (RNPs) consisting of 80 pmol of crRNA (IDT), 62 pmol of Cas12a protein (IDT), 3 μg of ssODN donor (IDT; Alt® modifications), 78 pmol of electroporation enhancer (IDT), and 200 ng of pMaxGFP (Lonza). The transfection was performed via nucleofection (Lonza, 4D-Nucleofector X-unit) using solution P3 and program CM-130 in a ([…]) cuvette. Five days post-nucleofection, cells were single-cell-sorted for GFP+(transfected) cells by FACs in 96-well plates and clonally selected. Clones were screened and verified for the desired modification via targeted deep sequencing using gene-specific primers with partial Illumina adapter overhangs as previously described. In brief, clonal cell pellets were harvested, lysed, and used to generate gene-specific amplicons with partial Illumina adapters in PCR #1. Amplicons were indexed in PCR #2 and pooled with other targeted amplicons for other loci to create sequence diversity. Additionally, 10% PhiX sequencing control V3 (Illumina) was added to the pooled amplicon library prior to running the sample on a Miseq Sequencer System (Illumina) to generate paired 2×250 bp reads. Samples were demultiplexed using the index sequences, fastq files were generated, and NGS analysis was performed using CRIS.py. Final clones were authenticated using the PowerPlex fusion system (Promega) and tested negative for mycoplasma by the MycoAlertTMPlus mycoplasma detection kit (Lonza).
Editing construct sequences and screening primers are outlined below (sequence from 5′ to 3′). hGSPT1Cas12acrRNA, CAGE635.GSPT1.g1: […]; CAGE635.g1.anti.ssODN: ttcctcacagtattgtgcagggtcatcaagaaaatgctta[…] CAGCCGCTCACgtcCttctctggaaccagtttcagaacttttccaattgcaatggtcttacctagaaatgaaattttaa (HiBiT tag and silent blocking modifications to prevent Cas12a recutting after integration are in upper case); CAGE635.hGSPT1.DS.F: […]; CAGE635.hGSPT1.DS.R: GTGAA GTAGGCTTCTGCAGTC.
The GSPT1 degradation assay was carried out by harvesting the HEK 293T reporter cell lines and resuspending the cells in media formulated for reduced background fluorescence (FluoroBrite; Thermo Fisher). The respective cell lines were seeded at a density of 8,000 cells/well into white-opaque 384-well optical grade assay tissue culture plates (Greiner 781080-20). The cells were incubated overnight at 37° C. to allow for attachment to the assay plate. Dilutions of the compounds were prepared in DMSO from 10 mM compound stocks. Test compounds were added in a 10-point dilution series (typically 10 μM to 100 pM) using a TECAN D300e Digital Dispenser with an upper limit of 0.5% final DMSO. Plates were centrifuged at 320×g for 2 minutes at room temperature, and subsequently incubated at 37° C.
After 24 hour incubation with the compounds, the plates were allowed to cool to room temperature for 10 minutes. 30 μL of HiBiT lytic buffer+1:50 HiBiT substrate Solution were added to each well. Plates were centrifuged at 320×g for 2 minutes at room temperature and then incubated with shaking at room temperature for 10 minutes covered with foil. Plates were read on a CLARIOstar microplate reader (BMG LabTech), measuring at 450 nm (donor emission) and 610 nm or 630 nm (acceptor emission). The DC50 values were determined by regression to best fit four-parameter logistic curves using GraphPad Prism.

T4 sequence (Q9UKS7 whole entry): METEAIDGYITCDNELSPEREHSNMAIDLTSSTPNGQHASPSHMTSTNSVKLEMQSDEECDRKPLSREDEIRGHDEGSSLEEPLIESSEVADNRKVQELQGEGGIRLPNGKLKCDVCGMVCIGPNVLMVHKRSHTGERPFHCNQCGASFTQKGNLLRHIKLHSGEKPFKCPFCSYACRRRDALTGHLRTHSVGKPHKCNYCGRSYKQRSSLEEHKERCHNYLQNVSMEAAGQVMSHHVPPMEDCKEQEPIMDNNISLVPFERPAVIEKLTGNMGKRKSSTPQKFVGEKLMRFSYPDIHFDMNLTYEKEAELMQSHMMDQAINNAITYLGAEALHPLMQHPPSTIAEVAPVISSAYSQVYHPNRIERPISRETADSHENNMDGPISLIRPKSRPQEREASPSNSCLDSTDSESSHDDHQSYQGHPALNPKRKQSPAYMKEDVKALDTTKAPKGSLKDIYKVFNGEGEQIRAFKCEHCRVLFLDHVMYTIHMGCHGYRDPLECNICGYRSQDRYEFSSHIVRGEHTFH
T4 sequence (Q96SW2 whole entry, further chain): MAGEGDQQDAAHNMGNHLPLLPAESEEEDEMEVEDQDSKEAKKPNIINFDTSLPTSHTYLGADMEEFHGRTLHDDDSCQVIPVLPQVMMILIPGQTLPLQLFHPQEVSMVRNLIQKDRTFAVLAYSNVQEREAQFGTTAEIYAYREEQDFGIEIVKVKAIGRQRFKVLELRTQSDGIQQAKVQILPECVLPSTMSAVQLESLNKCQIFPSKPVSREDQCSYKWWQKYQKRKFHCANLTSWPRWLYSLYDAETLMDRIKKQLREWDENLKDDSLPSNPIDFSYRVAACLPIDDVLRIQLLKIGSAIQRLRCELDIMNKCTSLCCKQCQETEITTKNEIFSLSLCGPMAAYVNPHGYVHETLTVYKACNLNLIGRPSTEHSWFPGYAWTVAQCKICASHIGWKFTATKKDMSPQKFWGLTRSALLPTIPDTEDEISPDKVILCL
T4 sequence (Q16531 whole entry partner): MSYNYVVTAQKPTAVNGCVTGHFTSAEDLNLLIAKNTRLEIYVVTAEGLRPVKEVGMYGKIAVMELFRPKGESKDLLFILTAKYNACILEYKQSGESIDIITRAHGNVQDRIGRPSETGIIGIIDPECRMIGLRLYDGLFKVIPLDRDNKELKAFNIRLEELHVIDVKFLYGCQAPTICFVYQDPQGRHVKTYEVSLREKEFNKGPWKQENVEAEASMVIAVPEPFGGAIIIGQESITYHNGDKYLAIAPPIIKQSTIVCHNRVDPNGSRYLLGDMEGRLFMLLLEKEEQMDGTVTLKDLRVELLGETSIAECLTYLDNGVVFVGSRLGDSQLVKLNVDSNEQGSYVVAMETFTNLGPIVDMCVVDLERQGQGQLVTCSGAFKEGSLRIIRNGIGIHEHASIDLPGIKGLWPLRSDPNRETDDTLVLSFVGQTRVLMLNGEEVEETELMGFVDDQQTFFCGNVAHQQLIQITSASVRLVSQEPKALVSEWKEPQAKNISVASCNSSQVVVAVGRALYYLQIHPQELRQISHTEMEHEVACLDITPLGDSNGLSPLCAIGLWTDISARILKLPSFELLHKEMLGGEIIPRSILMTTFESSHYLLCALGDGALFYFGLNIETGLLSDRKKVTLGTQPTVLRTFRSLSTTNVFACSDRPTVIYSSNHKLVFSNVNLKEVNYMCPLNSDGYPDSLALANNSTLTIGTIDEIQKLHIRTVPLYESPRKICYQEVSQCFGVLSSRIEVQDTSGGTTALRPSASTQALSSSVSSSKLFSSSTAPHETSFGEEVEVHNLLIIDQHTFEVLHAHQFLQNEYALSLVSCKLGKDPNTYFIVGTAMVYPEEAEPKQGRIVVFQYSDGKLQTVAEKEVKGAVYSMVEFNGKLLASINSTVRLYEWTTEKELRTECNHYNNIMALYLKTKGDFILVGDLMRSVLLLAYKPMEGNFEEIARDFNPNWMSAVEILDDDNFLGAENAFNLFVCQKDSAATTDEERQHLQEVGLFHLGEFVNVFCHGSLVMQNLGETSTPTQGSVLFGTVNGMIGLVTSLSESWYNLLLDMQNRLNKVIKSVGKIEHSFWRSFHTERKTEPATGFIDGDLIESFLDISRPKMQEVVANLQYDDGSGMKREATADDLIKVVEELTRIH
T3 sequence (Q9UKS7 whole entry): as the sequence (Q9UKS7 whole entry) above
T3 sequence (Q96SW2 whole entry): as the sequence (Q96SW2 whole entry, further chain) above
T3 sequence (Q16531 whole entry partner): as the sequence (Q16531 whole entry partner) above
T5 sequence (Q96SW2 whole entry partner): as the sequence (Q96SW2 whole entry, further chain) above
T5 sequence (Q16531 whole entry partner): as the sequence (Q16531 whole entry partner) above
T5 sequence (Q9UKT9 whole entry): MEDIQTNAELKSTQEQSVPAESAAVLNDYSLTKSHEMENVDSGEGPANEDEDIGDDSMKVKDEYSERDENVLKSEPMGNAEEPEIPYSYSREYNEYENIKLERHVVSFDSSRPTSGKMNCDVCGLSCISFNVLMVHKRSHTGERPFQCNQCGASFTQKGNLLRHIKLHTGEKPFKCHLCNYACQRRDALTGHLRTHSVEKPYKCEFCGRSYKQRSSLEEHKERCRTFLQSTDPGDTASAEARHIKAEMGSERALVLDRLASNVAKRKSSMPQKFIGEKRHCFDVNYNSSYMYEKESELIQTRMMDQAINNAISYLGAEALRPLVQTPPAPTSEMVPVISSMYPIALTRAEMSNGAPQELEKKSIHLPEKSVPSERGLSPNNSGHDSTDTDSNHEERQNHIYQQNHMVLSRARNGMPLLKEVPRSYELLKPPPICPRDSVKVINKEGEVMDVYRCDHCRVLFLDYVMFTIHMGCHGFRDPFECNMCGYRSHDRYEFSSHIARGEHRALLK
T1 sequence (Q96SW2 whole entry): as the sequence (Q96SW2 whole entry, further chain) above
T1 sequence (Q16531 whole entry partner): as the sequence (Q16531 whole entry partner) above
T2 sequence (Q96SW2 whole entry partner): as the sequence (Q96SW2 whole entry, further chain) above
T2 sequence (Q16531 whole entry partner): as the sequence (Q16531 whole entry partner) above
T2 sequence (Q13422 whole entry): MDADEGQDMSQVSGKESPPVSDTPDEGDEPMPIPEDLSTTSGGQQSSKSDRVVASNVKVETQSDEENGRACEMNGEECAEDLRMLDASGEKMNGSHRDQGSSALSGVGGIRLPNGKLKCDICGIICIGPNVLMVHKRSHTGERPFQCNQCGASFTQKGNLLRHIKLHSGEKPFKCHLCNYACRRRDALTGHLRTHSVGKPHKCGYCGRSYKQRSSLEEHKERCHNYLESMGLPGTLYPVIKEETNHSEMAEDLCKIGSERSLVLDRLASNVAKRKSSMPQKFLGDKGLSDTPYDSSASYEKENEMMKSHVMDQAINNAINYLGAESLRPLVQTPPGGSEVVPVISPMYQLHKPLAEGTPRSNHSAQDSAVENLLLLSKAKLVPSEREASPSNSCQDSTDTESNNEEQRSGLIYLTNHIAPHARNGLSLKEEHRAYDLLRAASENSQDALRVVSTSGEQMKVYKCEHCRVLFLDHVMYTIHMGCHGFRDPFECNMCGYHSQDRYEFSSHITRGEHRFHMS
T6 sequence (Q96SW2 whole entry partner): as the sequence (Q96SW2 whole entry, further chain) above
T6 sequence (Q16531 whole entry partner): as the sequence (Q16531 whole entry partner) above
T6 sequence (P15170 whole entry): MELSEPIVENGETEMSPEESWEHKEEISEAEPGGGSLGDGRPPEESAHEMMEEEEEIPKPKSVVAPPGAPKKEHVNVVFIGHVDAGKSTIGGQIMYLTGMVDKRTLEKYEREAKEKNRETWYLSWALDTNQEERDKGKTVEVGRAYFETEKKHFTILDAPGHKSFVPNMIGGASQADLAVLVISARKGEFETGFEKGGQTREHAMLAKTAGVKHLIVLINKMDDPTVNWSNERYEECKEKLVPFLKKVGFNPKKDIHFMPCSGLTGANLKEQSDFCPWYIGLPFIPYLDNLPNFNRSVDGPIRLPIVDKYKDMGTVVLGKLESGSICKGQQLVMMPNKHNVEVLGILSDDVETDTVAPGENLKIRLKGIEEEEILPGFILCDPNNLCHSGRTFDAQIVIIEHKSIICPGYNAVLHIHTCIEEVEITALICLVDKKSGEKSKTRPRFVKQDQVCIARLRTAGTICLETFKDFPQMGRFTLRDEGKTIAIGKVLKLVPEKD

SMILES	EC50 [1]	DC50 [2]	inhibition at 1 µM [3]	DC50 [4]	DC50 [5]	DC50 [6]
O=C1CCC(N2Cc3cc(OC4CCCCC4N4CC(c5cccc6[nH]ncc56)C4)ccc3C2=O)C(=O)N1 (centres unmarked) [Compound 211-B, 3-(5-((2-(3-(2H-indazol-4-yl)azetidin-1-yl)cyclohexyl)oxy)-1-oxoisoindolin-2-yl)piperidine-2,6-dione]	28 nM	> 30000 nM	79.3%	64 nM	> 30000 nM	
Cc1ccnc(C2CN([C@H]3CCCC[C@@H]3Oc3ccc4c(c3)CN(C3CCC(=O)NC3=O)C4=O)C2)n1 (mixture of isomers) [Compound 188-B, Rac-3-(5-(((trans)-2-(3-(4-methylpyrimidin-2-yl)azetidin-1-yl)cyclohexyl)oxy)-1-oxoisoindolin-2-yl)piperidine-2,6-dione]	44 nM	> 30000 nM	42%	240 nM	> 30000 nM	
O=C1CCC(N2Cc3cc(O[C@@H]4CCCC[C@@H]4N4CC(c5ncc(C(F)(F)F)cn5)C4)ccc3C2=O)C(=O)N1 (mixture of isomers) [Compound 186-B, Rac-3-(1-oxo-5-(((cis)-2-(3-(5-(trifluoromethyl)pyrimidin-2-yl)azetidin-1-yl)cyclohexyl)oxy)isoindolin-2-yl)piperidine-2,6-dione]	6 nM	> 30000 nM	79.7%	5 nM	> 30000 nM	
Cc1cnc(C2CN([C@H]3CCCC3Oc3ccc4c(c3)CN(C3CCC(=O)NC3=O)C4=O)C2)o1 (mixture of isomers) [Compound 151-B, Rac-3-(5-(((trans)-2-(3-(5-methyloxazol-2-yl)azetidin-1-yl)cyclopentyl)oxy)-1-oxoisoindolin-2-yl)piperidine-2,6-dione]	79 nM					> 30000 nM
Cc1cnc(C2CN([C@H]3CCCC[C@H]3Oc3ccc4c(c3)CN(C3CCC(=O)NC3=O)C4=O)C2)o1 (mixture of isomers) [Compound 174-B, Rac-3-(5-(((cis)-2-(3-(5-methyloxazol-2-yl)azetidin-1-yl)cyclohexyl)oxy)-1-oxoisoindolin-2-yl)piperidine-2,6-dione]	36 nM	> 30000 nM	70.3%	28 nM	> 30000 nM	
O=C1CCC(N2Cc3cc(OC4CCC[C@@H]4N4CC(c5ccncc5)C4)ccc3C2=O)C(=O)N1 (mixture of isomers) [Compound 205-B, Rac-3-(1-oxo-5-(((cis)-2-(3-(pyridin-4-yl)azetidin-1-yl)cyclopentyl)oxy)isoindolin-2-yl)piperidine-2,6-dione]	46 nM	> 30000 nM	40.6%	219 nM	> 30000 nM	
O=C1CCC(N2Cc3cc(OC4CCCCC4N4CC(C(=O)N5CCCCC5)C4)ccc3C2=O)C(=O)N1 (single isomer, unassigned) [Compound 23-A, 3-(1-oxo-5-((2-(3-(piperidine-1-carbonyl)azetidin-1-yl)cyclohexyl)oxy)isoindolin-2-yl)piperidine-2,6-dione]						> 30000 nM
Cc1cnc(C2CN([C@H]3CCCC[C@@H]3Oc3ccc4c(c3)CN(C3CCC(=O)NC3=O)C4=O)C2)nc1 (mixture of isomers) [Compound 189-B, Rac-3-(5-(((trans)-2-(3-(5-methylpyrimidin-2-yl)azetidin-1-yl)cyclohexyl)oxy)-1-oxoisoindolin-2-yl)piperidine-2,6-dione]	13 nM	> 30000 nM	21.2%	123 nM	> 30000 nM	

Continued, values first:

EC50 [1]	DC50 [2]	inhibition at 1 µM [3]	DC50 [4]	DC50 [5]	DC50 [6]	SMILES
15 nM	> 30000 nM	81.3%	10 nM	> 30000 nM		O=C1CCC(N2Cc3cc(O[C@@H]4CCCC[C@@H]4N4CC(c5ccc(C(F)(F)F)nc5)C4)ccc3C2=O)C(=O)N1 (mixture of isomers) [Compound 183-B, Rac-3-(1-oxo-5-(((cis)-2-(3-(6-(trifluoromethyl)pyridin-3-yl)azetidin-1-yl)cyclohexyl)oxy)isoindolin-2-yl)piperidine-2,6-dione]
36 nM	> 30000 nM	62.7%	78 nM	> 30000 nM		COc1ccc(C2CN([C@H]3CCCC3Oc3ccc4c(c3)CN(C3CCC(=O)NC3=O)C4=O)C2)cn1 (mixture of isomers) [Compound 201-B, Rac-3-(5-(((cis)-2-(3-(6-methoxypyridin-3-yl)azetidin-1-yl)cyclopentyl)oxy)-1-oxoisoindolin-2-yl)piperidine-2,6-dione]
57 nM	> 30000 nM	20.3%	425 nM	> 30000 nM		O=C1CCC(N2Cc3cc(OC4CCCCC4N4CC(c5cncnc5)C4)ccc3C2=O)C(=O)N1 (centres unmarked) [Compound 212-B, 3-(1-oxo-5-((2-(3-(pyrimidin-5-yl)azetidin-1-yl)cyclohexyl)oxy)isoindolin-2-yl)piperidine-2,6-dione]
109 nM	> 30000 nM	54.6%	66 nM	> 30000 nM		COc1cc(C2CN(C3CCCC3Oc3ccc4c(c3)CN(C3CCC(=O)NC3=O)C4=O)C2)ccn1 (centres unmarked) [Compound 170-B, 3-(5-((2-(3-(2-methoxypyridin-4-yl)azetidin-1-yl)cyclopentyl)oxy)-1-oxoisoindolin-2-yl)piperidine-2,6-dione]
